Marks after values point to notes of the source that are not given here.
Assays:
[1] = Quantification of PCI-32765 (ibrutinib) and its metabolite PCI-45227 in human cerebrospinal fluid samples of patient 01-001BF (LC-MS/MS); assay type: in vivo; conditions: for observed in CSF samples: patient 01-001BF after 560 mg of ibrutinib daily; for Calculated Concentration in CSF: patient 01-001BF, ibrutinib 560 mg daily
Description: Samples were obtained from patient (01-001BF), a person with Waldenstrom's macroglobulinemia with amyloid and Bing-Neel syndrome.
Standards and QC sample preparation and data analysis were carried out using the methods described in Example 1. In brief, all samples and standards were prepared on ice. Internal standard (IS) was prepared by addition of d5-PCI-32765 and d5-PCI-45227 in 0.2% formic acid in 1:9 (v/v) water: ACN (acetonitrile).
A100 μL of either a sample or a standard was transferred into each well of a 96-well plate. To each well was added 20 μL of the internal standard solution. […] Next, the 96-well plate was capped and vortexed thoroughly and then centrifuged at 4000 rpm for at least 10 minutes at 4° C.
High performance liquid chromatography (HPLC) (Shimadzu Nexera X2 HPLC system) was coupled with an electrospray ionization triple quadrupole mass spectrometer (AB SCIEX API-6500), and an autosampler (CTC PAL Eksigent). Chromatographic separation was achieved using an XBridge™ Ethylene-Bridged Hybrid (BEH) C18 column, 3.5 μm (2.1×50 mm) (Waters), and a C 18 guard column (2×4 mm) (Phenomenex Security Guard). Mobile phase A was 0.1% formic acid in water and mobile phase B was 100% acetonitrile. In all conditions, the column temperature was at ambient, the autosampler temperature was at 4° C., and the injection volume was 10 μL. The diversion time from HPLC to MS was from 0.5 minutes to 2.5 minutes.
The mass spectrometer (MS) equipped with an ESI source, was operated at a source temperature of 700° C.

[2] = CSF and plasma concentration ratios for ibrutinib and PCI-45227, patient 01-001BF; assay type: in vivo, human; conditions: ibrutinib 560 mg daily; for Kp: human, CSF/plasma, 560 mg daily
[3] = Adsorption test in human CSF to Nunc CryoTube vials; assay type: physicochemical; conditions: incubated for 1 h on ice, Low and High QC
From the text: These QC samples were kept in Nunc CryoTube vials for one hour. After an hour, each sample was vortex mixed and assayed against freshly prepared calibration standards. The obtained concentrations of the adsorption test QC samples were compared to the nominal values. The samples were considered to have no adsorption to the Nunc CryoTube vials if the mean value of the obtained concentrations was within 20% of the nominal concentration.

[4] = QC samples bench-top (ice) stability in human CSF; assay type: in vitro ADME; conditions: nominal 0.500 ng/mL, on ice for 2 hours, n=6
[5] = QC samples freeze (−70° C.)/thaw (on ice) stability in human CSF; assay type: in vitro ADME; conditions: nominal 0.500 ng/mL, 3 freeze/thaw cycles, n=6
Description: QC samples stored at −70° C., which were subjected to 3 freeze/thaw (ice) cycles, were measured against freshly prepared calibration standards.

[6] = Short-term storage stability in human CSF at −70±5° C.; assay type: in vitro ADME; conditions: −70±5° C. for at least 7 days, n=6
[7] = cited from earlier work
[8] = Day 1, pre-dose (0 h), BQL = below quantification limit (0.3 ng/mL)

SMILES | observed in CSF samples [1] | Calculated Concentration in CSF ([1]; 1 Month, 3 h) | Calculated Concentration in CSF ([1]; Day 1, 2 h) | Calculated Concentration in CSF [1, 8] | Calculated Concentration in CSF ([1]; Day 1, pre-dose (0 h), BQL = below quantification limit (0.3 ng/mL), listed as Ibrutinib) | Kp ([2]; 1 Month, 3 h) | Kp ([2]; Day 1, 2 h) | adsorption to Nunc Cryo Tube vials [3] | % CSF/Plasma ([2]; 1 Month, 3 h) | % CSF/Plasma ([2]; Day 1, 2 h) | Bench-top QC Low Concentration, Mean [4] | Bench-top QC Low, % Accuracy [4] | F/T3 (−70° C.) Low QC, % Accuracy [5] | F/T3 (−70° C.) Low QC, Mean [5] | Intra-run QC Low, % Accuracy ([6]; nominal 0.500 ng/mL) | Intra-run QC Low, Mean ([6]; nominal 0.500 ng/mL) | Intra-run QC Mid, % Accuracy ([6]; nominal 5.00 ng/mL) | Intra-run QC Mid, Mean ([6]; nominal 5.00 ng/mL) | reported percentage of unbound of the compounds in plasma [7]
C=CC(=O)N1CCC[C@@H](n2nc(-c3ccc(Oc4ccccc4)cc3)c3c(N)ncnc32)C1 [PCI-32765, (R)-1-(3-(4-amino-3-(4-phenoxyphenyl)-1H-pyrazolo[3,4-d]pyrimidin-1-yl)piperidin-1-yl)prop-2-en-1-one] | observed | 7.19 ng/mL | 15.0 ng/mL | BQL | BQL^a | 0.035 | 0.03 | no adsorption | – | – | – | – | – | – | – | – | – | – | –
Nc1ncnc2c1c(-c1ccc(Oc3ccccc3)cc1)nn2[C@@H]1CCCN(C(=O)C(O)CO)C1 (stereo partly drawn) [PCI-45227] | observed | 15.4 ng/mL | 14.7 ng/mL | BQL and BQL^a | – | – | – | no adsorption | 8.5% | 6.2% | 0.458 ng/mL | 91.5% | 97.2% | 0.486 ng/mL | 99.4% | 0.497 ng/mL | 87.8% | 4.39 ng/mL | 9%

From patent US20160008366A1, “BTK INHIBITORS FOR THE TREATMENT OF CNS MALIGNANCIES” (Pharmacyclics LLC, priority 2014, published 2016)
